From PMC4145316, “Cytotoxic and Apoptosis-Inducing Activity of Triterpene Glycosides from Holothuria scabra and Cucumaria frondosa against HepG2 Cells” (Marine Drugs, 2014)
In brackets after ≈: the same amount, converted by molar mass.

What was measured:
[1] = test system: human hepatoma (HepG2) cells; assay: MTT cytotoxicity assay, HepG2 cells; assay type: cell-based; details: for IC50 (μg/mL) HepG2: means ± SD (n = 3); for IC50: Homo sapiens, HepG2, means ± SD (n = 3), read-out: IC50 (μg/mL) HepG2
Description: (§1) Human hepatoma (HepG2), human cervical cancer (HeLa), human leukemia (K562) and human liver (HL-7702) cells were obtained by Shanghai Institute of Biochemistry and Cell Biology, and maintained in the logarithmic phase of growth in RPMI-1640 complete medium supplemented with 2 mM L-glutamine (Sigma Chemical Co., Saint Louis, MO, USA), 100 IU/mL penicillin, 100 μg/mL streptomycin and 10% FCS at 37 °C under humidified air with 5% CO2.
(§2) The effect of compounds 1–13 on the viability of HepG2, HeLa, K562 and HL-7702 cells was determined by MIT assay as described previously. Briefly, the tumor and normal cells were seeded at 1 × 10^4 cells/well in a 96-well microtiter plate and incubated at 37 °C in a humidified atmosphere with 5% CO2. After 24 h, compounds 1–13, the positive drug CDDP or RPMI-1640 medium were added into each well, and the plates were incubated at 37 °C for the indicated time. Each concentration was repeated four wells. 50 μL of MTT solution (2 mg/mL) was added to each well 4 h before incubation end, and incubated further for 4 h. The plates were centrifuged (1400× g, 5 min) and the untransformed MTT was removed carefully by pipetting. To each well, 150 μL of DMSO was added and the absorbance was evaluated in an ELISA reader at 570 nm after 15 min. The inhibitory rates and 50% inhibitory concentrations (IC50) values towards cell viability were calculated by NDST software. Each test was performed in triplicate.

[2] = test system: human leukemia (K562) cells; assay: MTT cytotoxicity assay, K562 cells; assay type: cell-based; details: for IC50 (μg/mL) K562: means ± SD (n = 3); for IC50: Homo sapiens, K562, means ± SD (n = 3), read-out: IC50 (μg/mL) K562
Description: as §1, §2

[3] = test system: human cervical cancer (HeLa) cells; assay: MTT cytotoxicity assay, HeLa cells; assay type: cell-based; details: means ± SD (n = 3); for IC50: Homo sapiens, HeLa, read-out: IC50 (μg/mL) HeLa
Description: as §1, §2

[4] = test system: human liver (HL-7702) cells; assay: MTT cytotoxicity assay, normal HL-7702 cells; assay type: cell-based; details: for IC50 (μg/mL) HL-7702 / IC50: MTT assay, normal hepatocytes, means ± SD (n = 3); for Ratio (HL-7702/HepG2): ratio of IC50 values against HL-7702 and HepG2 cells, selective cytotoxicity; for IC50: Homo sapiens, L02, read-out: IC50 (μg/mL) HL-7702
Description: as §1, §2

[5] = test system: human gastric cancer MKN-45 cells; details: read-out: IC50 against MKN-45 cells; cited from earlier work
[6] = test system: HeLa cells; set-up: method as in PMID 18288810; details: cited from earlier work

Compound | IC50 (μg/mL) HepG2 [1] | IC50 (μg/mL) K562 [2] | IC50 (μg/mL) HeLa [3] | IC50 (μg/mL) HL-7702 [4] | Ratio (HL-7702/HepG2) [4] | IC50 [1] | IC50 [2] | IC50 [3] | IC50 [4] | IC50 [5] | IC50 against HeLa cells [6] | Ratio (HL-7702/HepG2) ([4]; listed as 10)
CO[C@@H]1[C@@H](O)[C@H](O[C@@H]2[C@@H](O)[C@H](O[C@H]3[C@H](O)[C@@H](O)[C@H](O[C@H]4[C@H](O[C@H]5CC[C@]6(C)C7=C[C@H](O)[C@]89C(=O)O[C@@](C)(C(O)CCC(C)C)[C@@]8(O)CC[C@@]9(C)[C@@H]7CC[C@H]6C5(C)C)OC[C@@H](OS(=O)(=O)[O-])[C@@H]4O)O[C@@H]3C)O[C@H](CO)[C@H]2O)O[C@H](CO)[C@H]1O.[Na+] (stereo partly drawn) [Holothurin A1 (7), Holothurin A1] | 2.90 ± 0.21 µg/mL | 6.50 ± 0.01 µg/mL | 2.84 ± 0.09 µg/mL | 3.59 ± 0.05 µg/mL | 1.24 |  |  |  |  |  |  | 
HS-1 [HS-1 (5)] | 6.10 ± 0.33 µg/mL | 12.95 ± 1.54 µg/mL | 3.20 ± 0.32 µg/mL | 7.19 ± 0.20 µg/mL | 1.18 |  |  |  |  |  |  | 
CO[C@@H]1[C@@H](O)[C@H](O[C@@H]2[C@@H](O)[C@H](O[C@H]3[C@H](O)[C@@H](O[C@@H]4OC[C@@H](O)[C@H](O)[C@H]4O)[C@H](O[C@H]4[C@H](OC5CC[C@]6(C)[C@H]7CCC89C(=O)O[C@@](C)(CCCC(C)C)C8[C@@H](OC(C)=O)C[C@@]9(C)C7=CC[C@H]6C5(C)C)OC[C@@H](OS(=O)(=O)O)[C@@H]4O)O[C@@H]3C)OC[C@H]2O)O[C@H](CO)[C@H]1O (stereo partly drawn) [Frondoside A (11), Frondoside A] |  |  |  |  | 1.31 | 4.14 ± 0.57 µg/mL (≈ 3.15 µM) | 3.76 ± 0.05 µg/mL (≈ 2.86 µM) | 3.3 ± 0.05 µg/mL (≈ 2.51 µM) | 5.42 ± 0.98 µg/mL (≈ 4.13 µM) |  |  | 
CC(C)CCC[C@]1(C)OC(=O)C23[C@@H](O)C=C4[C@@H](CC[C@H]5C(C)(C)C(O[C@@H]6OC[C@@H](OS(=O)(=O)O)[C@H](O)[C@H]6O[C@@H]6O[C@H](C)[C@@H](O)[C@H](O)[C@H]6O)CC[C@]45C)[C@]2(C)CC[C@@]31O (stereo partly drawn) [echinoside B, reference compound] |  |  |  |  |  |  |  |  |  | 180 nM |  | 
okhotosides B2 |  |  |  |  |  |  |  |  |  |  | 13.0 µg/mL | 
CO[C@@H]1[C@@H](O)[C@H](O[C@@H]2[C@@H](O)[C@H](O[C@H]3[C@H](O)[C@@H](O)[C@H](O[C@H]4[C@H](O[C@H]5CC[C@]6(C)C7=C[C@H](O)[C@@]89C(=O)O[C@@](C)(C%10CCC(C)(C)O%10)[C@@]8(O)CC[C@@]9(C)[C@@H]7CC[C@H]6C5(C)C)OC[C@@H](OS(=O)(=O)O)[C@@H]4O)O[C@@H]3C)O[C@H](CO)[C@H]2O)O[C@H](CO)[C@H]1O (stereo partly drawn) [Holothurin A (6), Holothurin A] |  |  |  |  | 1.11 | 3.46 ± 0.33 µg/mL (≈ 2.88 µM) | 8.94 ± 0.01 µg/mL (≈ 7.45 µM) | 3.76 ± 0.47 µg/mL (≈ 3.14 µM) | 3.85 ± 0.32 µg/mL (≈ 3.21 µM) | 2370 nM |  | 
CO[C@@H]1[C@@H](O)[C@H](O[C@@H]2[C@@H](O)[C@H](O[C@H]3[C@H](O)[C@@H](O)[C@H](O[C@H]4[C@H](O[C@H]5CC[C@]6(C)C7=C[C@H](O)C89C(=O)O[C@@](C)(CCC=C(C)C)[C@@]8(O)CC[C@@]9(C)C7CCC6C5(C)C)OC[C@@H](OS(=O)(=O)[O-])[C@@H]4O)O[C@@H]3C)O[C@H](CO)[C@H]2O)O[C@H](CO)[C@H]1O.[Na+] (stereo partly drawn) [24-Dehydro echinoside A (2), 24-Dehydro echinoside A] | 1.95 ± 0.09 µg/mL | 6.15 ± 0.24 µg/mL | 2.06 ± 0.27 µg/mL | 3.75 ± 0.40 µg/mL | 1.92 |  |  |  |  | 1600 nM |  | 
Frondoside A6 [Frondoside A6 (12)] | 2.53 ± 0.66 µg/mL | 6.59 ± 0.11 µg/mL | 3.75 ± 0.51 µg/mL | 6.05 ± 0.67 µg/mL | 2.39 |  |  |  |  |  |  | 
24-Dehydro frondoside A6 [24-Dehydro frondoside A6 (13)] | 3.57 ± 0.54 µg/mL | 5.61 ± 1.05 µg/mL | 3.16 ± 0.34 µg/mL | 7.55 ± 0.83 µg/mL | 2.12 |  |  |  |  |  |  | 
CO[C@@H]1[C@@H](O)[C@H](CO)O[C@@H](O[C@H]2[C@@H](O)[C@@H](O[C@H]3[C@@H](O)[C@@H](O[C@H]4OC[C@@H](O)[C@@H](O)[C@@H]4O)[C@H](O[C@H]4[C@H](O[C@H]5CC[C@@]6(C)[C@H](CC=C7[C@@H]6CC[C@]68C(=O)O[C@](C)(CCCC(C)C)[C@H]6[C@H](OC(C)=O)C[C@@]78C)C5(C)C)OC[C@@H](OS(=O)(=O)O)[C@H]4O)O[C@@H]3C)OC[C@@H]2O)[C@@H]1O [Frondoside A1 (10), Frondoside A1] | 1.91 ± 0.03 µg/mL (≈ 1.45 µM) | 2.21 ± 0.56 µg/mL (≈ 1.68 µM) | 2.03 ± 0.17 µg/mL (≈ 1.55 µM) | 4.96 ± 1.10 µg/mL (≈ 3.78 µM) | 2.60 |  |  |  |  |  |  | more than 2
C[C@H]1O[C@@H](O[C@H]2[C@H](O[C@H]3CC[C@]4(C)C5=C[C@H](O)C67C(=O)O[C@@](C)(C8CCC(C)(C)O8)[C@@]6(O)CC[C@@]7(C)[C@@H]5CCC4C3(C)C)OC[C@@H](OS(=O)(=O)[O-])[C@@H]2O)[C@H](O)[C@@H](O)[C@@H]1O.[Na+] (stereo partly drawn) [Holothurin B (3), Holothurin B] | 1.79 ± 0.02 µg/mL | 3.64 ± 0.04 µg/mL | 2.05 ± 0.11 µg/mL | 2.69 ± 0.45 µg/mL | 1.50 |  |  |  |  | 1590 nM |  | 
Scabraside B [Scabraside B (9)] | 7.29 ± 0.62 µg/mL | 11.85 ± 2.26 µg/mL | 4.44 ± 0.85 µg/mL | 11.03 ± 1.37 µg/mL | 1.51 |  |  |  |  |  |  | 
Scabraside D [Scabraside D (8)] | 3.33 ± 0.33 µg/mL | 10.06 ± 1.06 µg/mL | 3.84 ± 0.42 µg/mL | 4.40 ± 0.22 µg/mL | 1.32 |  |  |  |  |  |  | 
N.N.[Cl][Pt][Cl] [CDDP, cis-diamminedichloroplatinum, reference compound] | 2.05 ± 0.13 µg/mL | 2.99 ± 0.24 µg/mL | 3.41 ± 0.37 µg/mL | 4.48 ± 0.41 µg/mL | 2.18 |  |  |  |  |  |  | 
okhotosides B3 |  |  |  |  |  |  |  |  |  |  | 17.8 µg/mL | 
Holothurin B4 [Holothurin B4 (4)] | 2.71 ± 0.12 µg/mL | 3.55 ± 0.53 µg/mL | 2.71 ± 0.54 µg/mL | 4.58 ± 0.54 µg/mL | 1.69 |  |  |  |  |  |  | 
